In US11479533B2, “Inhibitors of Rho associated coiled-coil containing protein kinase” (KADMON CORPORATION, LLC, priority 2017, dated 2022):
Like-named read-outs stand apart in the source and are kept apart here.

What was measured:
[1] = target: recombinant ROCK2 (amino acids 1-552) (Homo sapiens (Human), UniProt O75116); assay: Z'-lyte kinase assay, ROCK2; assay type: biochemical
In short: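 Inhibition of recombinant human ROCK2 (residues 1-552, sourced from ThermoFisher Scientific) was assessed in vitro with the Z'-lyte kinase kit. Kinase activity with compound was normalized to DMSO control to give percent inhibition. IC50s came from 9-point 2-fold serial dilutions fitted by nonlinear regression in GraphPad Prism.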

[2] = Brain and plasma concentrations in mouse by HPLC/MS/MS; assay type: in vivo; details: 2.5 mg/kg IV
Description: Brain and plasma concentrations of select ROCK inhibitors were evaluated in mouse by HPLC/MS/MS at 15 min and 2 hrs following 2.5 mg/kg IV drug administration.

[3] = test system: ppMlc (T18/S19) and pMypt (T853) in Svec 4-10 mouse endothelial cells; assay: Western blot of Svec 4-10 cell lysates; assay type: cell-based; details: 110 nM, 120 min
Description: FIG. 1d. Western blot of SVEC4-10 cell lysates to visualize ppMlc (T18/S19) & pMYPT (T853) levels following treatment with the compound of Example 2 for 120 min. SVEC4-10 cells were treated with the compound and phosphorylated proteins were visualized by western blotting.
Compounds ROCK activities were tested in additional cell types. Svec 4-10 mouse endothelial cells were treated with the compound of Example 2 for 120 min and ppMlc (T18/S19) and pMypt (T853) levels were visualized by western blotting.

[4] = test system: histamine-induced vascular permeability; assay: Histamine-induced vascular permeability model in mice; assay type: in vivo, mouse; details: single oral dose 1 hr. prior to histamine injection
Description: Histamine-induced vascular permeability model in mice: 7-8 weeks old Balb/c female mice were acclimated at least 3 days, and randomly assigned to groups. Animals were injected i.v. with 1% Evans Blue at a dose 100 μl/mouse. 10 minutes later animals in disease groups were given 1 μg of histamine in 20 μl PBS intradermally on the back and sacrificed 20 minutes after administration. 20 μL PBS were injected intradermal into the animal back in sham control. Vehicle and test articles were dosed via oral gavage accordingly. Positive control salbutamol was administered 15 minutes before Evans blue. 20 minutes post challenge with histamine, animals were euthanized. The skin was then inverted, the lesion diameters were measured. The area of the lesion was calculated and expressed in square millimeters. Following diameter measurements, Evan's Blue dye was extracted from the skin tissue and the optical density was measured. Data are calculated against a spiked in Evan's Blue standard curve. The extent of compound efficacy was quantitated by calculating both the overall skin spot area and the amount of Evans Blue dye permeating the skin. 20 Minutes post challenge with histamine, animals were euthanized, the lesion diameters were measured. The area of the lesion was calculated and expressed in square millimeters. […]

[5] = test system: human oligodendrocyte/neuron progenitor cells; assay: Chondroitin Sulfate Proteoglycan (CSPG) assay on human oligodendrocyte/neuron progenitors; assay type: cell-based; details: 1 μM and 3 μM, 72 hour
Description: Chondroitin Sulfate Proteoglycan (CSPG) assay on human oligodendrocyte/neuron progenitors in 96-well plate. […] Cells were seeded on the coated plates at a density of 6,000 cells per well in expansion media. The following day the expansion media was replaced with fresh spontaneous differentiation media containing testing compounds. Cells were imaged and neurite length was analyzed by IncuCyte S3 Live Cell Analysis System every 4 hours.

[6] = test system: human oligodendrocyte/neuron progenitor cells; assay: Aβ 1-42 induced cell death assay on human oligodendrocyte/neuron progenitors; assay type: cell-based; details: 3 μM, 10.5 μM Aβ1-42, 24 hour
Description: Aβ 1-42 induced cell death assay on human oligodendrocyte/neuron progenitors in 96-well plate. Cells were seeded on poly-L-ornithine and laminin coated plates at a density of 8,000 cells per well and maintained in expansion media until Day 3, then media was replaced with fresh spontaneous differentiation media containing testing compounds and IncuCyte Annexin V Red Reagent (1:200 dilution) (Essen BioScience Cat. No. 4641). After the pre-incubation period of 30 minutes at 37° C., 10.5 μM Aβ 1-42 (Bachem Product No. H-8146) was added directly in the pretreatment solution. Neurite length and total Annexin V positive area were analyzed by IncuCyte S3 Live Cell Analysis System every 2 hours.
In addition to promoting neuroregeneration, ROCK inhibitors have been reported to exert neuroprotective effects and prolong neuronal survival. Here we test the neuroprotective effect of ROCK inhibitors against Aβ1-42. Human oligodendrocyte/neuron progenitor cells were pre-incubated with ROCK inhibitors for 30 minutes before exposing to 10.5 μM Aβ1-42. IncuCyte Annexin V Red Reagent was added to culture media to label cell apoptosis. Pictures were taken by IncuCyte S3 and total Annexin V positive area was analyzed by IncuCyte S3 base software. Neurite length was quantified by IncuCyte NeuroTrack Software Module, see FIGS. 3b and 3c.

Chain of recombinant ROCK2 (amino acids 1-552) (O75116 1-552): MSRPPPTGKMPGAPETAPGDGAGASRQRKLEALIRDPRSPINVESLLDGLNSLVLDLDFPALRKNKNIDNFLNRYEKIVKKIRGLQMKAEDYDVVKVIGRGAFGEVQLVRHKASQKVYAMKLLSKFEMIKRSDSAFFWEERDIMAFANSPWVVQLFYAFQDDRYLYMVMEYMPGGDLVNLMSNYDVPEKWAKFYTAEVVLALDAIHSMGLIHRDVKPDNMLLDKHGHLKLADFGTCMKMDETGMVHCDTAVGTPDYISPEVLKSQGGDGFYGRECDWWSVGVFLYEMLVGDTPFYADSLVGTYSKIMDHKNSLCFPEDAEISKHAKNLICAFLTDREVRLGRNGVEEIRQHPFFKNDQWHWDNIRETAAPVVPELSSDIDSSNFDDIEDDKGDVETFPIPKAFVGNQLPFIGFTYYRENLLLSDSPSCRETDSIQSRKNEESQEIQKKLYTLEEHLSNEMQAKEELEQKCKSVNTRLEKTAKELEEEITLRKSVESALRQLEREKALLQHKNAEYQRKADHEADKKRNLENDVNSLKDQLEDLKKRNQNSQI

CNC(C(=O)Nc1ccc(-c2cn[nH]c2)cc1)c1cccc(OC)c1 (centres unmarked) [Example 2, N-(4-(1H-pyrazol-4-yl)phenyl)-2-(3-methoxyphenyl)-2-(methylamino)acetamide]
IC50 [1]: 4 nM
concentration at 0.25 hr ([2]; brain, 0.25 hr, read-out: Mean Conc. at 0.25 hr, Brain): 541 ng/g
concentration at 2 hr ([2]; brain, 2 hr, read-out: Mean Conc. at 2 hr, Brain): 76.6 ng/g
concentration at 0.25 hr ([2]; plasma, 0.25 hr, read-out: Mean Conc. at 0.25 hr, Plasma): 268 ng/mL
concentration at 2 hr ([2]; plasma, 2 hr, read-out: Mean Conc. at 2 hr, Plasma): 25.7 ng/mL
Kp at 0.25 h ([2]; brain/plasma, 0.25 hr, read-out: Mean Brain/Plasma Ratio at 0.25 hr): 2.01
Kp at 2 h ([2]; brain/plasma, 2 hr, read-out: Mean Brain/Plasma Ratio at 2 hr): 2.99
phosphorylation of ROCK targets MLC and MYPT1 [3]: efficiently blocked phosphorylation
vascular permeability induced by histamine (Evan's Blue extravasation) [4]: blocked the vascular permeability induced by histamine in a dose dependent manner
CSPG mediated neurite outgrowth arrest [5]: significantly counteract
Aβ1-42 induced cell death (Annexin V area) [6]: significantly protect
